Results reported in US20250122155A1, “NOVEL INDOLE DERIVATIVE, PHARMACEUTICAL COMPOSITION COMPRISING SAME, AND USE THEREOF” (MITOIMMUNE THERAPEUTICS INC., priority 2021, published 2025).
Where two headings read alike, the source gives them in different places.

How the values were obtained:
H9C2 cells [1] = test: Maintenance of intracellular calcium level in heart cells treated with t-BHP (FLIPR Calcium 6); type: cell-based, rat; conditions: H9C2, t-BHP 150 μM
Procedure: To examine the maintenance effect on calcium level in heart cells, H9C2 cells were divided into a 96-well plate at 1.5×10^4 cells/well and cultured for 24 hours. To measure intracellular calcium level, a FLIPR Calcium 6 assay kit (Molecular devices; #R8190) was used. Following the experimental method provided by the manufacturer, cells were treated with probenecid and calcium-sensitive dye for 1.75 hours, and then the cells were treated with the compound of Example 2 for 0.25 hours (the final concentration of the compound was 0.02 or 0.01 μM). And the cells were treated with t-BHP to a final concentration of 150 μM, then intracellular calcium level was measured every 30 seconds in real time.
FIG. 1 is a graph regarding the regulatory effect of the compound of Example 2 on calcium level under t-BHP treatment. The ΔF/F(Max−Min) value on the vertical axis is the difference between the maximum and minimum fluorescence intensity values of the calcium-sensitive dye after treatment with t-BHP (150 μM), and this value increases as intracellular calcium level increases.

H9C2 cells [2] = test: Protective effect on heart cells against t-BHP (LDH release); type: cell-based; conditions: H9C2, t-BHP 400 μM, 2 hours, read-out: EC50 (μM), Cell Protection Effect against t-BHP in Heart Cells
Procedure: In order to identify the protective effect with regard to heart cells, H9C2 cells were divided into 96-well plates by 1.5×10^4, and cultured for 24 hours. The respective wells were treated with compounds of the examples 3× serial diluted to final concentrations of 30, 10, 3, 1, 0.3, 0.1, 0.03 and 0.01 μM, then incubated for 15 to 20 minutes. After treating with t-BHP with a final concentration of 400 μM, incubation was performed for 2 hours. To confirm the protective effect of each compound, a Cytotoxicity LDH assay kit [Dojindo; CK12] was used to measure the degree of extracellular secretion of LDH. After 2-hour treatment of the cells with t-BHP was completed, 100 μL each of the supernatant in which the cells were placed was collected and moved to a new 96-well plate. 100 μL/well of the assay buffer included in the kit (same amount as the sample) was added, followed by wrapping with foil and reacting for 30 minutes at room temperature. Observing the change of color in the sample, 50 μL/well of stop solution was added, then an iD3 spectrometer was used to measure absorbance at 490 nm and calculate the EC50 values. The EC50 of the compounds of the examples is preferably no more than 1.0 μM, and more preferably no more than 0.3 μM.

[3] = Plasma and brain drug concentration after oral administration (HPLC-MS/MS); type: in vivo
Procedure: […] parameters can be represented as maximum concentration in plasma (Cmax), time taken until maximum concentration in plasma (Tmax), area under the plasma concentration-time curve (AUClast and AUCinf), and half-life (t1/2), and the like.
The compound of Example 2 was orally administered to ICR mice at a dose of 10 mg/kg, and drug concentration in mouse plasma was measured using HPLC-MS/MS spectroscopy at 0.5, 1, 2, 4, 8 and 24 hours. The mouse brains were removed at 2 or 24 hours, and drug concentration in the brain was measured using HPLC-MS/MS spectroscopy. The area under the plasma concentration v. time curve (AUCinf) was measured to be […], and at 2 hours after administration drug concentration in plasma was 398 ng/mL and brain drug concentration was measured at 683 ng/mL. […] Further, at 24 hours after administration, for Example 2, drug concentration in plasma was measured to be 5.6 ng/mL and drug concentration in the brain was measured at 11.4 ng/mL. With the brain-plasma drug concentration ratio at 2.04, drug exposure in the brain was still high.
The Comparative Example compound was orally administered to ICR mice at a dose of 10 mg/kg, and drug concentration in mouse plasma was measured using HPLC-MS/MS spectroscopy at 0.5, 1, 2, 4, 8 and 24 hours. The mouse brains were removed at 2 or 24 hours, and drug concentration in the brain was measured using HPLC-MS/MS spectroscopy.

[4] = ICR mouse, oral 10 mg/kg, 2 hr, 10 mg/kg

EC50 (H9C2 cells [2]): ≤ 0.3 µM
AUClast, brain ([3]; ICR mouse, oral 10 mg/kg): 8319.0 ng·h/g
drug concentration in brain [3, 4]: 682.8 ng/mL
drug concentration in plasma [3, 4]: 398.2 ng/mL
AUC(0-inf) ([3]; ICR mouse, oral 10 mg/kg, plasma, read-out: area under the plasma concentration v. time curve (AUCinf)): 5420 ng·h/mL
concentration at 2 h ([3]; ICR, mouse, brain, po, 10 mg/kg, 2 hr, read-out: drug concentration in brain): 683 ng/mL
concentration at 24 h ([3]; ICR, mouse, brain, po, 10 mg/kg, 24 hr, read-out: drug concentration in brain): 11.4 ng/mL
concentration at 0.5 h ([3]; ICR, mouse, plasma, po, 10 mg/kg, 0.5 hr): 334 ng/mL
concentration at 1 h ([3]; ICR, mouse, plasma, po, 10 mg/kg, 1 hr): 337 ng/mL
concentration at 2 h ([3]; ICR, mouse, plasma, po, 10 mg/kg, 2 hr, read-out: drug concentration in plasma): 398 ng/mL
concentration at 4 h ([3]; ICR, mouse, plasma, po, 10 mg/kg, 4 hr): 672 ng/mL
concentration at 8 h ([3]; ICR, mouse, plasma, po, 10 mg/kg, 8 hr): 232 ng/mL
concentration at 24 h ([3]; ICR, mouse, plasma, po, 10 mg/kg, 24 hr, read-out: drug concentration in plasma): 5.6 ng/mL
AUC(0-t) ([3]; ICR, mouse, plasma, po, 10 mg/kg, plasma, read-out: area under the plasma concentration v. time curve (AUClast)): 5400 ng·h/mL
AUC(0-t) ([3]; ICR, mouse, plasma, po, 10 mg/kg, read-out: AUClast, plasma): 5400 ng·h/mL
Kp at 2 h ([3]; brain/plasma, ICR mouse, oral 10 mg/kg, 2 hr, read-out: brain-plasma drug concentration ratio (B/P ratio)): 1.71
Kp at 24 h ([3]; brain/plasma, ICR mouse, oral 10 mg/kg, 24 hr, read-out: brain-plasma drug concentration ratio (B/P ratio)): 2.04
Kp ([3]; brain/plasma, ICR mouse, oral 10 mg/kg, read-out: B/P ratio of AUClast): 1.74
Compound: COCCOCc1cc(NC2CCCC2)c2[nH]c(-c3ccccc3)cc2c1 [Example 2, N-cyclopentyl-5-(2-methoxyethoxymethyl)-2-phenyl-1H-indol-7-amine]
intracellular calcium level, ΔF/F(Max−Min) (H9C2 cells [1]; compound 0.01 μM): significantly decreased
intracellular calcium level, ΔF/F(Max−Min) (H9C2 cells [1]; compound 0.02 μM): within normal range
